Series [1] concerns RAW264.7. As to the kind of experiment: Cytotoxicity against mouse RAW264.7 cells at 50 uM after 48 hrs by MTT assay. Type of series: cell-based. The settings on record: raw264.7, 48 h. Background: Formazan colour is commonly taken as a measure of viable cells.
In series [2] the test system is RAW264.7. As to the kind of experiment: Inhibition of LPS-induced NO production in mouse RAW264.7 cells preincubated for 30 mins followed by LPS stimulation and measured after 24 hrs by Griess assay. The class given is functional, cell-based. In general terms: Griess reagent forms a coloured azo dye with nitrite.

Each structure is given as a SMILES string.

Usually IC50 stands for the concentration at which inhibition is half-maximal. With `COC(=O)[C@@]1(CO)CCCC2=C1C(=O)C[C@@H](C)[C@]21C[C@@H](c2ccoc2)OC1=O`, in the series on RAW264.7 [1], the Activity result is recorded as “Non-Toxic”. Moreover, in the series on RAW264.7 [2], the IC50 is greater than 50 µM.

`COC(=O)C1(C(=O)OC)CCCC2=C1[C@@H](OC(C)=O)C[C@@H](C)[C@]21C[C@@H](c2ccoc2)OC1=O`: the Activity result with RAW264.7 [1] is “Non-Toxic”. In the series on RAW264.7 [2], the IC50 was greater than 50 µM.

As to `CO[C@@]12C[C@@H](C)[C@]3(C[C@@H](c4ccoc4)OC3=O)[C@@H]3CCCC(=C31)C(=O)O2`, the Activity result in the series with RAW264.7 [1] is listed as “Non-Toxic”. The same compound came in with an IC50 in the series on RAW264.7 [2] greater than 50 µM.

Take `C[C@@H]1C[C@@H](O)C2=C(C[C@@H]3C[C@]2(C)C(=O)O3)[C@@]12C[C@@H](c1ccoc1)OC2=O`: the Activity entry in the series with RAW264.7 [1] is “Non-Toxic”. In the series with RAW264.7 [2], this compound yielded an IC50 greater than 50 µM.

For the compound `C[C@@H]1C[C@H]2OC(=O)C3=C2[C@@H](CCC3)[C@@]12C[C@@H](c1ccoc1)OC2=O`, in the series on RAW264.7 [1], the Activity result is given as “Non-Toxic”. This compound registered a half-inhibitory concentration (IC50) with RAW264.7 [2] greater than 50 µM.

In the case of `COC(=O)[C@@]1(CO)CCCC2=C1[C@@H](OC(C)=O)C[C@@H](C)[C@]21C[C@@H](c2ccoc2)OC1=O`, the Activity entry with RAW264.7 [1] is given as “Non-Toxic”. In the series on RAW264.7 [2], the IC50 is greater than 50 µM.

Consider `COC(=O)[C@]1(C)CCCC2=C1CC[C@@H](C)[C@]2(C)CCC1=CC(=O)OC1`, for which the Activity entry in the series on RAW264.7 [1] was “Non-Toxic”. Also, in the series with RAW264.7 [2], the concentration for half-maximal inhibition (IC50) is greater than 50 µM.

Consider `CO[C@@H]1C[C@@H](C)[C@](C)(CC(=O)c2ccoc2)C2=C1[C@]1(C)C[C@H](C2)OC1=O`, for which the Activity entry in the series with RAW264.7 [1] is “Non-Toxic”. Further, the IC50 with RAW264.7 [2] was greater than 50 µM.

`COC(=O)C1(C(=O)OC)C2=C(CC[C@@H]1OC(C)=O)[C@@]1(C[C@@H](c3ccoc3)OC1=O)[C@H](C)CC2=O`: in the series on RAW264.7 [1], the Activity result is reported as “Non-Toxic”. In the series on RAW264.7 [2], this compound returned an IC50 greater than 50 µM.

With `COC(=O)C1(C(=O)OC)CCCC2=C1[C@@H]1C[C@@H](C)[C@@]2(CC(=O)c2ccoc2)C(=O)O1`, the Activity entry in the series with RAW264.7 [1] is “Non-Toxic”. In addition, the IC50 in the series on RAW264.7 [2] is greater than 50 µM.

In the case of `COC(=O)[C@]1(C)CCCC2=C1C(=O)C[C@@H](C)[C@]2(C)CCC1=CC(=O)OC1`, the Activity result in the series on RAW264.7 [1] is “Non-Toxic”. In the series with RAW264.7 [2], this compound yielded an IC50 greater than 50 µM.

As for `COC(=O)[C@]1(C)C2=C(CC[C@H]1O)[C@@]1(C[C@@H](c3ccoc3)OC1=O)[C@H](C)C[C@@H]2OC(C)=O`, the Activity entry in the series with RAW264.7 [1] is on record as “Non-Toxic”. In the series with RAW264.7 [2], this compound showed an IC50 greater than 50 µM.

Regarding `C[C@@H]1C[C@@H]2OC(=O)[C@]3(O)CCCC(=C23)[C@@]12C[C@@H](c1ccoc1)OC2=O`, in the series on RAW264.7 [1], the Activity entry was “Non-Toxic”. The compound also displayed an IC50 with RAW264.7 [2] greater than 50 µM.

For the compound `COC(=O)[C@@]1(COC(C)=O)CCCC2=C1[C@@H](O)C[C@@H](C)[C@]21C[C@@H](c2ccoc2)OC1=O`, the Activity entry with RAW264.7 [1] is given as “Non-Toxic”. The compound also showed a concentration for half-maximal inhibition (IC50) in the series with RAW264.7 [2] greater than 50 µM.

For `COC(=O)C1(C(=O)OC)CCCC2=C(CC(=O)c3ccoc3)[C@H](C)CC=C21`, the Activity entry with RAW264.7 [1] is “Non-Toxic”. The IC50 in the series on RAW264.7 [2] was greater than 50 µM.

On to `COC(=O)[C@@]1(CO)CCCC2=C1[C@@H](O)C[C@@H](C)[C@]21C[C@@H](c2ccoc2)OC1=O`, for which the Activity result in the series on RAW264.7 [1] is given as “Non-Toxic”. The IC50 in the series with RAW264.7 [2] is greater than 50 µM.

As to `COC(=O)[C@@]1(C)CC(=O)C=C2[C@@](C)(CC(=O)c3ccoc3)[C@H](C)CC[C@]21O`, in the series with RAW264.7 [1], the Activity result is listed as “Non-Toxic”. Also, the 50% inhibitory concentration (IC50) in the series with RAW264.7 [2] was greater than 50 µM.

Consider `C[C@@H]1C[C@H]2OC(=O)[C@@]3(CO)CCCC(=C23)[C@@]12C[C@@H](c1ccoc1)OC2=O`, for which the Activity entry in the series with RAW264.7 [1] is “Non-Toxic”. This compound yielded an IC50 in the series with RAW264.7 [2] greater than 50 µM.

`COC(=O)[C@@]1(C)C2=C(CC[C@H]1OC(C)=O)[C@@]1(C[C@@H](c3ccoc3)OC1=O)[C@H](C)CC2=O`: the Activity result in the series with RAW264.7 [1] was “Non-Toxic”. In addition, in the series with RAW264.7 [2], the IC50 is greater than 50 µM.

In the case of `COC(=O)[C@@]1(COC(C)=O)CCCC2=C1CC[C@@H](C)[C@]21C[C@@H](c2ccoc2)OC1=O`, in the series with RAW264.7 [1], the Activity result is reported as “Non-Toxic”. This compound returned an IC50 in the series with RAW264.7 [2] greater than 50 µM.

As to `COC(=O)[C@@]1(C)CCCC2=C1[C@@H](OC(C)=O)C[C@@H](C)[C@]21C[C@@H](c2ccoc2)OC1=O`, the Activity entry with RAW264.7 [1] is “Non-Toxic”. Besides, the IC50 in the series on RAW264.7 [2] is greater than 50 µM.

As to `COC(=O)[C@@]1(C)C2=C(CC[C@H]1O)[C@@]1(C[C@@H](c3ccoc3)OC1=O)[C@H](C)CC2`, in the series on RAW264.7 [1], the Activity entry is listed as “Non-Toxic”. In the series on RAW264.7 [2], this compound yielded an IC50 greater than 50 µM.

Consider `COC(=O)[C@@]1(C)CCCC2=C1[C@@H](O)C[C@@H](C)[C@]21C[C@@H](c2ccoc2)OC1=O`, for which the Activity result in the series with RAW264.7 [1] is on record as “Non-Toxic”. For the same compound, the IC50 in the series with RAW264.7 [2] was greater than 50 µM.

Turning to `C[C@@H]1CCC2=C(C[C@@H]3C[C@]2(C)C(=O)O3)[C@@]12C=C(c1ccoc1)OC2=O`, the Activity result with RAW264.7 [1] is “Non-Toxic”. Further, the IC50 with RAW264.7 [2] was greater than 50 µM.

Take `C[C@@H]1C[C@@H]2OC(=O)C3=C2[C@](O)(CCC3)[C@@]12C[C@@H](c1ccoc1)OC2=O`: the Activity result in the series with RAW264.7 [1] is listed as “Non-Toxic”. Besides, the IC50 in the series with RAW264.7 [2] is greater than 50 µM.

Consider `Cc1cc(O)cc2c1CC[C@@H](C)[C@]2(C)CC(=O)c1ccoc1`, for which the Activity entry with RAW264.7 [1] is given as “Non-Toxic”. In the series on RAW264.7 [2], this compound came in with an IC50 of 23.7 µM.

With `CC1=CC(=O)C2=C3[C@@]1(O)CC[C@@H](C)[C@]3(C)C=C2c1ccoc1`, in the series with RAW264.7 [1], the Activity result is on record as “Non-Toxic”. Moreover, half-maximal inhibition in the series with RAW264.7 [2] (IC50) required 17.2 µM.

For `COC(=O)[C@@]1(C)CC(=O)C2=C3[C@@](C)(CC2=O)[C@H](C)CC[C@]31O`, in the series with RAW264.7 [1], the Activity entry is recorded as “Non-Toxic”. In the series on RAW264.7 [2], this compound had an IC50 greater than 50 µM.

Take `C[C@@H]1CCC2=C(C[C@H]3C[C@]2(C)C(=O)O3)[C@@]1(C)CC(=O)c1ccoc1`: the Activity entry in the series with RAW264.7 [1] is “Non-Toxic”. For the same compound, the IC50 with RAW264.7 [2] was greater than 50 µM.

As to `COC(=O)[C@@]1(C)C2=C(CC[C@H]1OC(C)=O)[C@@]1(C[C@@H](c3ccoc3)OC1=O)[C@H](C)CC2` [CRASSIFOLIN F], in the series with RAW264.7 [1], the Activity entry is recorded as “Non-Toxic”. In the series on RAW264.7 [2], this compound had an IC50 greater than 50 µM.

In the case of `O=c1c(O)c(-c2ccc(O)c(O)c2)oc2cc(O)cc(O)c12` [QUERCETIN], the IC50 in the series with RAW264.7 [2] came to 15.1 µM. This lies in the double-digit micromolar range.

`C[C@@H]1C[C@@H]2OC(=O)C3=C2[C@H](CCC3)[C@@]12C[C@@H](c1ccoc1)OC2=O` [TEUCVIN]: in the series on RAW264.7 [1], the Activity result was “Non-Toxic”. This compound also yielded an IC50 with RAW264.7 [2] greater than 50 µM.

The record behind these values is ChEMBL document CHEMBL4602674, “19-nor-, 20-nor-, and tetranor-Halimane-Type Furanoditerpenoids from Croton crassifolius” (J Nat Prod, 2020).
